Assay results: patent publication US20160244437A1, “SUBSTITUTED PHENYLALANINE DERIVATIVES” (BAYER PHARMA AKTIENGESELLSCHAFT, priority 2013, published 2016)
Counter-ions that a name gives are not always drawn.

Assays:
human factor XIa = biological target: T1, human factor XIa (Homo sapiens, UniProt P03951); assay: Measurement of FXIa inhibition (fluorogenic peptide substrate Boc-Glu(OBzl)-Ala-Arg-AMC); format: biochemical; settings: factor XIa from Kordia 0.45 nM, 15 min pre-incubation, 30 min at 22° C., fluorescence
T1 construct: purchased Kordia
T1 sequence (P03951 388-625 limits assumed): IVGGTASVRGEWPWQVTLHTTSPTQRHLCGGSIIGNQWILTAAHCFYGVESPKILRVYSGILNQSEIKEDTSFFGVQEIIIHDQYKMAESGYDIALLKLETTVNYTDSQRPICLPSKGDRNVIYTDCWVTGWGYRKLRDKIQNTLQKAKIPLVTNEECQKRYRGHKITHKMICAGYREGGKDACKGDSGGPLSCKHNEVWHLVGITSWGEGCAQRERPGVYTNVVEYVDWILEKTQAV
T1 sequence (P03951 19-387 partner limits assumed): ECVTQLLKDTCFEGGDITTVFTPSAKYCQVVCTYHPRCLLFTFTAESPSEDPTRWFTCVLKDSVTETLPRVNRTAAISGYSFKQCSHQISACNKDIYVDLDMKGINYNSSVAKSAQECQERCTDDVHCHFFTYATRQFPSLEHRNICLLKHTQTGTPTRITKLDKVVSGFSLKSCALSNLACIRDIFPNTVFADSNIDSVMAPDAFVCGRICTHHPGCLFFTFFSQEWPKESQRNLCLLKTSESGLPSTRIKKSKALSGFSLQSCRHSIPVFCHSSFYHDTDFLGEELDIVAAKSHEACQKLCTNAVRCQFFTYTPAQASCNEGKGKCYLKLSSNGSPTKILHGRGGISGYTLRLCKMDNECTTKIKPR
Experimental: The factor XIa inhibition of the substances according to the invention is determined using a biochemical test system which utilizes the reaction of a peptidic factor XIa substrate to determine the enzymatic activity of human factor XIa. Here, factor XIa cleaves from the peptic factor XIa substrate the C-terminal aminomethylcoumarin (AMC), the fluorescence of which is measured. The determinations are carried out in microtitre plates.
Test substances are dissolved in dimethyl sulphoxide and serially diluted in dimethyl sulphoxide (3000 μM to 0.0078 μM; resulting final concentrations in the test: 50 μM to 0.00013 μM). In each case 1 μl of the diluted substance solutions is placed into the wells of white microtitre plates from Greiner (384 wells). Subsequently, the following are added successively: 20 μl of assay buffer (50 mmol/l Tris buffer pH 7.4; 100 mmol/l sodium chloride; 5 mmol/l calcium chloride; 0.1% bovine serum albumin) and 20 μl of factor XIa from Kordia (0.45 nM in assay buffer). After 15 min of incubation, the enzyme reaction is started by addition of 20 μl of the factor XIa substrate Boc-Glu(OBzl)-Ala-Arg-AMC dissolved in assay buffer (10 μM in assay buffer) from Bachem, the mixture is incubated at room temperature (22° C.) for 30 min and fluorescence is then measured (excitation: 360 nm, emission: 460 nm). The measured emissions of the test batches with test substance are compared to those of control batches without test substance (only dimethyl sulphoxide instead of test substance in dimethyl sulphoxide), and IC50 values are calculated from the concentration/activity relationships.

human and animal plasma = assay: Determination of anticoagulatory activity: activated partial thromboplastin time (aPTT) in plasma; settings: concentration of test substance which brings about a 1.5-fold extension of the aPTT; plasma in vitro, C.K. Prest kit
Experimental: The anticoagulatory activity of the test substances is determined in vitro in human and animal plasma (for example mouse, rat, rabbit, pig and dog plasma). To this end, blood is drawn off in a mixing ratio of sodium citrate/blood of 1:9 using a 0.11 molar sodium citrate solution as receiver. Immediately after the blood has been drawn off, it is mixed thoroughly and centrifuged at about 4000 g for 15 minutes. The supernatant is pipetted off.
The activated partial thromboplastin time (aPTT) is determined in the presence of varying concentrations of test substance or the corresponding solvent using a commercial test kit (C.K. Prest from Diagnostica Stago). The test compounds are incubated with the plasma and the PTT reagent (cephalin, kaolin) at 37° C. for 3 minutes. Coagulation is then started by addition of a 25 mM aqueous calcium chloride solution, and the time when coagulation occurs is determined. The concentration of test substance which brings about a 1.5-fold extension of the aPTT is determined.

Compound | IC50 (human factor XIa) [nM] | aPTT (human and animal plasma) [µmol/L]
NC[C@H]1CC[C@H](C(=O)N[C@@H](Cc2cccc(-c3cnc(N4CCNCC4)nc3)c2)C(=O)Nc2ccc(-c3nnn[nH]3)cc2)CC1 [Example 68, N-alpha-{[trans-4-(Aminomethyl)cyclohexyl]carbonyl}-3-[2-(piperazin-1-yl)pyrimidin-5-yl]-N-[4-(1H-tetrazol-5-yl)phenyl]-L-phenylalaninamide hydrochloride] | 7.3 | 0.18
Cc1ccc(S(=O)(=O)N2CCOCC2)cc1-c1cccc(C[C@H](NC(=O)[C@H]2CC[C@H](CN)CC2)C(=O)Nc2ccc(-c3n[nH]c(=O)[nH]3)cc2)c1 [Example 9, trans-4-(Aminomethyl)-N-[(2S)-3-[2′-methyl-5′-(morpholin-4-ylsulphonyl)biphenyl-3-yl]-1-oxo-1-{[4-(5-oxo-4,5-dihydro-1H-1,2,4-triazol-3-yl)phenyl]amino}propan-2-yl]cyclohexanecarboxamide hydrochloride] | 9.6 | 0.14
CCN(CC)CCNC(=O)c1ccc(-c2cccc(C[C@H](NC(=O)[C@H]3CC[C@H](CN)CC3)C(=O)Nc3ccc(-c4nnn[nH]4)cc3)c2)cc1 [Example 42, 3′-[(2S)-2-({[trans-4-(Aminomethyl)cyclohexyl]carbonyl}amino)-3-oxo-3-{[4-(1H-tetrazol-5-yl)phenyl]amino}propyl]-N-[2-(diethylamino)ethyl]biphenyl-4-carboxamide hydrochloride] | 11 | 0.35
CN(C)CCNC(=O)c1cccc(-c2cccc(C[C@H](NC(=O)[C@H]3CC[C@H](CN)CC3)C(=O)Nc3ccc(-c4nnn[nH]4)cc3)c2)c1 [Example 39, 3′-[(2S)-2-({[trans-4-(Aminomethyl)cyclohexyl]carbonyl}amino)-3-oxo-3-{[4-(1H-tetrazol-5-yl)phenyl]amino}propyl]-N-[2-(dimethylamino)ethyl]biphenyl-3-carboxamide hydrochloride] | 8.9 | 0.22
CC(C)N1CCC(NC(=O)c2cccc(-c3cccc(C[C@H](NC(=O)[C@H]4CC[C@H](CN)CC4)C(=O)Nc4ccc(-c5nnn[nH]5)cc4)c3)c2)CC1 [Example 32, 3′-[(2S)-2-({[trans-4-(Aminomethyl)cyclohexyl]carbonyl}amino)-3-oxo-3-{[4-(1H-tetrazol-5-yl)phenyl]amino}propyl]-N-[1-(propan-2-yl)piperidin-4-yl]biphenyl-3-carboxamide hydrochloride] | 6.8 | 0.18
Cc1ccc(S(=O)(=O)N(C)C)cc1-c1cccc(C[C@H](NC(=O)[C@H]2CC[C@H](CN)CC2)C(=O)Nc2ccc(-c3noc(=O)[nH]3)cc2)c1 [Example 23, trans-4-(Aminomethyl)-N-[(2S)-3-[5′-(dimethylsulphamoyl)-2′-methylbiphenyl-3-yl]-1-oxo-1-{[4-(5-oxo-4,5-dihydro-1,2,4-oxadiazol-3-yl)phenyl]amino}propan-2-yl]cyclohexanecarboxamide hydrochloride] | 3.6 | 
CN(C)c1ncc(-c2cccc(C[C@H](NC(=O)[C@H]3CC[C@H](CN)CC3)C(=O)Nc3ccc4[nH]c(=O)[nH]c4c3)c2)cn1 [Example 73, N-alpha-{[trans-4-(Aminomethyl)cyclohexyl]carbonyl}-3-[2-(dimethylamino)pyrimidin-5-yl]-N-(2-oxo-2,3-dihydro-1H-benzimidazol-5-yl)-L-phenylalaninamide hydrochloride] | 25 | 
Cc1cnccc1-c1cccc(C[C@H](NC(=O)[C@H]2CC[C@H](CN)CC2)C(=O)Nc2ccc(-c3n[nH]c(=O)[nH]3)cc2)c1 [Example 89, N-alpha-{[trans-4-(Aminomethyl)cyclohexyl]carbonyl}-3-(3-methylpyridin-4-yl)-N-[4-(5-oxo-4,5-dihydro-1H-1,2,4-triazol-3-yl)phenyl]-L-phenylalaninamide hydrochloride] |  | 0.46
COCc1nnc(-c2ccc(NC(=O)[C@H](Cc3cccc(-c4ccccc4C(C)C)c3)NC(=O)[C@H]3CC[C@H](CN)CC3)cc2)[nH]1 [Example 104, trans-4-(Aminomethyl)-N-[(2S)-3-(2′-isopropylbiphenyl-3-yl)-1-({4-[3-(methoxymethyl)-4H-1,2,4-triazol-5-yl]phenyl}amino)-1-oxopropan-2-yl]cyclohexanecarboxamide hydrochloride] | 8.6 | 

The next lines start with results.

IC50 (human factor XIa) [nM] | Compound | aPTT (human and animal plasma) [µmol/L]
2.4 | Cc1cnccc1-c1cccc(C[C@H](NC(=O)[C@H]2CC[C@H](CN)CC2)C(=O)Nc2ccc(-c3nnn[nH]3)cc2)c1 [Example 80, N-alpha-{[trans-4-(Aminomethyl)cyclohexyl]carbonyl}-3-(3-methylpyridin-4-yl)-N-[4-(1H-tetrazol-5-yl)phenyl]-L-phenylalaninamide hydrochloride] | 0.25
2.3 | CN(C)c1ncc(-c2cccc(C[C@H](NC(=O)[C@H]3CC[C@H](CN)CC3)C(=O)Nc3ccc(-c4nnn[nH]4)cc3)c2)c(OCc2ccccc2)n1 [Example 78, N-alpha-{[trans-4-(Aminomethyl)cyclohexyl]carbonyl}-3-[4-(benzyloxy)-2-(dimethylamino)pyrimidin-5-yl]-N-[4-(1H-tetrazol-5-yl)phenyl]-L-phenylalaninamide hydrochloride] | 0.19
3.3 | Cc1ccc(N)cc1-c1cccc(C[C@H](NC(=O)[C@H]2CC[C@H](CN)CC2)C(=O)Nc2ccc(-c3nnn[nH]3)cc2)c1 [Example 103, trans-4-(Aminomethyl)-N-[(2S)-3-(5′-amino-2′-methylbiphenyl-3-yl)-1-oxo-1-{[4-(1H-tetrazol-5-yl)phenyl]amino}propan-2-yl]cyclohexanecarboxamide hydrochloride] | 0.1
5.5 | NC[C@H]1CC[C@H](C(=O)N[C@@H](Cc2cccc(-c3cccc(C(=O)NCCN4CCOCC4)c3)c2)C(=O)Nc2ccc(-c3nnn[nH]3)cc2)CC1 [Example 29, 3′-[(2S)-2-({[trans-4-(Aminomethyl)cyclohexyl]carbonyl}amino)-3-oxo-3-{[4-(1H-tetrazol-5-yl)phenyl]amino}propyl]-N-[2-(morpholin-4-yl)ethyl]biphenyl-3-carboxamide hydrochloride] | 0.37
1.9 | NC[C@H]1CC[C@H](C(=O)N[C@@H](Cc2cccc(-c3cccc(S(=O)(=O)NC4CC4)c3)c2)C(=O)Nc2ccc(-c3nnn[nH]3)cc2)CC1 [Example 6, trans-4-(Aminomethyl)-N-[(2S)-3-[3′-(cyclopropylsulphamoyl)biphenyl-3-yl]-1-oxo-1-{[4-(1H-tetrazol-5-yl)phenyl]amino}propan-2-yl]cyclohexanecarboxamide hydrochloride] | 0.27
5.2 | Cc1cc(C(=O)NC2CCC(N(C)C)CC2)ccc1-c1cccc(C[C@H](NC(=O)[C@H]2CC[C@H](CN)CC2)C(=O)Nc2ccc(-c3nnn[nH]3)c(F)c2)c1 (stereo partly drawn) [Example 64, 3′-[(2S)-2-({[trans-4-(Aminomethyl)cyclohexyl]carbonyl}amino)-3-{[3-fluoro-4-(1H-tetrazol-5-yl)phenyl]amino}-3-oxopropyl]-N-[4-(dimethylamino)cyclohexyl]-2-methylbiphenyl-4-carboxamide hydrochloride] | 0.12
5.6 | NC[C@H]1CC[C@H](C(=O)N[C@@H](Cc2cccc(-c3ccc(C(=O)NCCN4CCCCC4)cc3)c2)C(=O)Nc2ccc(-c3nnn[nH]3)cc2)CC1 [Example 37, 3′-[(2S)-2-({[trans-4-(Aminomethyl)cyclohexyl]carbonyl}amino)-3-oxo-3-{[4-(1H-tetrazol-5-yl)phenyl]amino}propyl]-N-[2-(piperidin-1-yl)ethyl]biphenyl-4-carboxamide hydrochloride] | 0.19
5.3 | NC[C@H]1CC[C@H](C(=O)N[C@@H](Cc2cccc(-c3cncc(N)c3)c2)C(=O)Nc2ccc(-c3nnn[nH]3)cc2)CC1 [Example 72, N-alpha-{[trans-4-(Aminomethyl)cyclohexyl]carbonyl}-3-(5-aminopyridin-3-yl)-N-[4-(1H-tetrazol-5-yl)phenyl]-L-phenylalaninamide hydrochloride] | 
